Assay results as given in patent publication US8759300B2, “Polypeptides and methods of use” (The Research Foundation for the State University of New York, priority 2007, dated 2014).
pKd: −log10 of the molar value. “Also recorded” adds a separate entry of the source. No end group written: not given here.

Experiments:
[1] = test system: GFs (TGF-β1, PDGF-BB, VEGF, FGF-2); assay: Binding of growth factors to FN domains, GFs reported together
Description: (§1) 20 μl of 50% v/v peptide-agarose beads are incubated with 125I-PDGF in 0.1 ml of binding buffer (DMEM+2% BSA) at room temperature for 2 hours with rotation. Beads are washed 6 times with DMEM. Bound PDGF-BB are released by the addition of 100 μl of 1M NaOH. The radioactivity bound to FN-beads are quantified in a γ-counter. Nonspecific binding are established from ^125I-PDGF binding to nonconjugated beads, then specific binding derived by subtraction of nonspecific binding from total binding. Binding constants (KD) and Bmax are determined from nonlinear regression of specific binding curves using Prism 4 from GraphPad Software, San Diego, Calif. “Scatchard plots” are derived from the KD and Bmax obtained with non linear regression analysis.
(§2) In the Biacore2000 system, binding constants from kinetic data are determined by passing varying concentrations of FN peptides (analytes) over chip surfaces which are coupled with PDGF-BB (ligand), respectively. All kinetic experiments are carried out at 20° C. at a flow rate of 20 μl/min. For mass transport experiments, each analyte is injected at a fixed concentration and run at flow rates ranging from 5 to 75 μl/min. All analytes are injected over PDGF-BB ligand surfaces as well as over a control surface for 120 s, followed by 300 s of dissociation in running buffer. Regeneration of the sensor chip for subsequent injections is accomplished by pulse of 0.1% SDS. Mass transport experiments have detected little difference in response at different flow rates thus validating data from kinetic experiments. Sensorgrams are prepared and globally fitted using nonlinear least-squares analysis and numerical integration of the differential rate equations with the Biacore Bioevaluation software. Each sensogram generated using a control surface is substracted from the corresponding experimental sensorgrams, and the resulting curves are transformed to concentration units using the molecular mass of the injected species, the equivalence of 1000 resonance units (RU) per 1 ng/mm^2, and a matrix thickness of 100 nm. Each data set, which consists of a series of sensorgrams from injections of different concentration of analyte over the same surface, are analyzed using kinetic models from Biaevaluation software.

PDGF-BB [2] = molecular target: T1, PDGF-BB (Homo sapiens, UniProt P01127); assay: Equilibrium binding of 125I-PDGF-BB to FN, FN domains and peptides; conditions: for PDGF-BB binding, in words: equilibrium binding and/or plasmon resonance; for pKd: equilibrium binding
Description: as §1

PDGF-BB [3] = molecular target: T1, PDGF-BB; assay: Surface plasmon resonance (Biacore), PDGF-BB; type: binding; conditions: plasmon resonance, kinetic binding
Description: as §2, with “Each sensogram generated using a control surface is substracted from the corresponding experimental sensorgrams, and the resulting curves are transformed to concentration units using the molecular mass of the injected species, the equivalence of 1000 resonance units (RU) per 1 ng/mm^2, and a matrix thickness of 100 nm.” left out

FN-null cells [4] = assay: FN-null cell survival on surfaces coated with FN domains; type: cell-based, mouse; conditions: for FN-null cell survival / proliferation: FNIII8-11 ± named FN domain, or named FN construct, PDGF-BB added 2 hrs after plating; for FN-null cell survival / proliferation, summary statement: cells plated on named FN construct, or on FNIII8-11 ± named domain; for FN-null cell survival with PDGF at 3 days: surface precoated with 0.15 μM GST-tagged FNIII8-11 ± named FN domain, or named FN construct, PDGF-BB added 1 day after plating
Description: To further investigate the response of cells to PDGF-BB bound to FN domains, we investigated the survival response of mouse fibroblasts null for FN (FN−/−), or “FN-null”. First we determined the response of FN-null cells to PDGF-BB in the absence of serum or other sources of exogenous FN. […] Next, FN-null cells were plated on tissue culture plastic surfaces precoated with 0.15 μM GST-tagged FNIII8-11±other FN domains known to have PDGF-BB binding activity and then PDGF-BB added 1 day later. […] Importantly, differential response of FN-null cells, plated on different FN domains, to PDGF-BB was not secondary to differences in attachment as judged by cell counts two hours after plating. The FNIII8-11 central cell binding domain was present in all circumstances.

VEGF = molecular target: T2, VEGF (Homo sapiens, UniProt P15692); assay: Surface plasmon resonance, VEGF; type: binding
T2 sequence (P15692 27-191 isoform P15692-4): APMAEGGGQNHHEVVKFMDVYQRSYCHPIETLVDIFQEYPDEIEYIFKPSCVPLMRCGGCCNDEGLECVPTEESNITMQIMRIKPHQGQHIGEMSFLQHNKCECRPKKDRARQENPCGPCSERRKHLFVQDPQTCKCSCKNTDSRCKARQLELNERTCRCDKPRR

bFGF (FGF-2) = bFGF (FGF-2) (Homo sapiens, UniProt P09038); assay: Equilibrium binding of bFGF (FGF-2) to FN and FN domains
Description: [The source words this procedure for another target and reports this target under the same test.] as §1

TGF-β1 = TGF-β1 (Homo sapiens, UniProt P01137); assay: Equilibrium binding of TGF-β1 to FN, FN domains and peptides; conditions: for TGF-β1 binding, in words: equilibrium and/or kinetic binding
Description: [The source words this procedure for another target and reports this target under the same test.] as §1

FN-null cells [5] = assay: FN-null cell assay, peptides added directly to medium on FNIII8-11; type: cell-based, mouse
Description: FIG. 6. FN-null fibroblast response to soluble, unconjugated P5 (SEQ ID NO:37). FN-null cells were cultured at 4,000 cells/well in 96 well plates precoated with 0.125 mM of FNIII8-11 in DMEM for 4 hrs, and then further incubated in DMEM+2% BSA with or without the indicated concentrations of Peptide 5 at 37° C. for 3 days. Cells were counted in three 10× fields in each of 4 wells (mean±SD, n−12).
Scrambled variants of peptides 1 and 5 had no activity in these assays.
Variants of peptide 5 derived from fibronectin were generated by removing one amino acid at a time from the N-terminus or C-terminus of Peptide 5 (Table 2). These peptides (P12-P24) were added directly to medium with or without PDGF-BB.

[6] = molecular target: T3, PDGF-BB binding to FNIII1, FNIII12-14 and IIICS (Homo sapiens, UniProt P01127); assay: Inhibition by peptides of PDGF-BB binding to FN domains; conditions: all three FN domains
T3 construct: made in house; host or cells: E. coli BL21DE3LysS (FN domains only)
Text: To further localize PDGF-BB binding within FNIIII, we acquired a peptide from the central 76 amino acids (aa) of FNIII1 (FN630-704) (FIG. 4), which has anti-angiogenic properties and promotes FN polymerization. […] Next, we looked for sequence homologies within the two halves of the peptide and discovered the sequence pattern noted above ([QN]-X(1,2)-[ST]-X(0,1)-[IG]-[QS]-[KRQ]-[YTM]-[IG]-X(4,5)-X(0,1)-[KR]-X(1,2)-X(1,2)-[RT]-X(1,2)-[KQTS]-X(2)-T) (SEQ ID NO:30) (see peptides 1-4). […] These findings may explain similar PDGF-BB binding among FN heparin-binding domains, FNIII12-V15, FNIII12-15, FNIII12-14, FNIII12-13, and IIICS. […] Next, we determined if PDGF-BB-binding peptides from FNIII1 could inhibit PDGF-BB binding to FNIII1, FNIII12-14 and IIICS. For initial experiments we selected peptide 1 and peptide 2. For control, we used scrambled peptide 1.

[7] = molecular target: T4, TGF-β1 binding to recombinant FN domain (Homo sapiens, UniProt P01137); assay: Inhibition by peptide of TGF-β1 binding to recombinant FN domains
T4 construct: made in house; host or cells: E. coli BL21DE3LysS (FN domains only)

[8] = molecular target: T5, bFGF binding to recombinant FN domain (Homo sapiens, UniProt P09038); assay: Inhibition by peptide of bFGF binding to recombinant FN domains
T5 construct: made in house; host or cells: E. coli BL21DE3LysS (FN domains only)

EGF = EGF (Homo sapiens, UniProt P01133); assay: Binding of EGF to FN, FN domains and peptides
FGF-1 = FGF-1 (Homo sapiens, UniProt P05230); assay: Binding of FGF-1 to FN, FN domains and peptides
TGF-α = TGF-α (Homo sapiens, UniProt P01135); assay: Binding of TGF-α to FN, FN domains and peptides
[9] = peptide added directly to media with or without PDGF-BB

T1 sequence (P01127 82-190 limits assumed): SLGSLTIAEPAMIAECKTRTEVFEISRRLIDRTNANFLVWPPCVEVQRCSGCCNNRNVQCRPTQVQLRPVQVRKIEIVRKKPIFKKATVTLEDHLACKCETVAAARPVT
Sequence of TGF-β1 (P01137 279-390 limits assumed): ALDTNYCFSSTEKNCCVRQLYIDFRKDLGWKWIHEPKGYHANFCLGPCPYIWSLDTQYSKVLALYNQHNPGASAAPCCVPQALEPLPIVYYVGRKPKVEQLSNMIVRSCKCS
T3 sequence (P01127 82-190 limits assumed): as the sequence (P01127 82-190 limits assumed) above
Sequence of bFGF (FGF-2) (P09038 143-288): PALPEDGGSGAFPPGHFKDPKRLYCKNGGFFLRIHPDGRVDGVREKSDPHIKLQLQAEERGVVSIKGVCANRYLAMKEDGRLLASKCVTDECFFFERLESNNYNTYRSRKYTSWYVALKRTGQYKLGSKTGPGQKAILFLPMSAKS
Sequence of EGF (P01133 971-1023 limits assumed, species assumed): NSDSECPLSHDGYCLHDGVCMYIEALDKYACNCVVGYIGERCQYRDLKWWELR
T5 sequence (P09038 134-288 limits assumed): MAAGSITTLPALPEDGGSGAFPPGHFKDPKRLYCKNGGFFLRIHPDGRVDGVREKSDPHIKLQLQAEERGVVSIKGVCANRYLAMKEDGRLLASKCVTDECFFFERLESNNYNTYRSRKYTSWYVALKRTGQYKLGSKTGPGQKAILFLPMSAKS
Sequence of FGF-1 (P05230 whole entry, species assumed, the tested form may be a part): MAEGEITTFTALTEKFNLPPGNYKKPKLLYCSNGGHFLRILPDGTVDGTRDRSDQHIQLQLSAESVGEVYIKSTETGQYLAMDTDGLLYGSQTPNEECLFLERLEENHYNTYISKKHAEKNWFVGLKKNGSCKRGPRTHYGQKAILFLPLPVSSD
Sequence of TGF-α (P01135 40-89, species assumed): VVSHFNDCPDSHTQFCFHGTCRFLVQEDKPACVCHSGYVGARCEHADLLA
T4 sequence (P01137 279-390 limits assumed): as the sequence (P01137 279-390 limits assumed) above

FN70: 70 kDa amino terminus of FN, which includes fibrin and gelatin binding domains
Binding of the GFs tested, in words [1]: None of the GFs detectably bound; also recorded: In no case did any GF bind | PDGF-BB binding, in words (PDGF-BB [2]): did not

FN630-667: half of the 76 aa FNIII1 peptide FN630-704
PDGF-BB binding, in words (PDGF-BB [2]): demonstrated PDGF-BB binding

FN668-704: half of the 76 aa FNIII1 peptide FN630-704
PDGF-BB binding, in words (PDGF-BB [2]): demonstrated PDGF-BB binding

FNIII1-2: recombinant FN domain, first and second type III repeat
Binding of the GFs tested, in words [1]: all four GFs bound | pKd (PDGF-BB [2]): 7.43 | pKd (PDGF-BB [3]): 8.04 | FN-null cell survival / proliferation (FN-null cells [4]): enhance survival

FNIII1-11: recombinant FN domain; FNIII1 PDGF-binding domain contiguous with FNIII8-11 cell-binding domain
VEGF binding, in words (VEGF): did not | PDGF-BB binding, in words (PDGF-BB [2]): bound | bFGF (FGF-2) binding, in words (bFGF (FGF-2); equilibrium and/or kinetic binding): did not | FN-null cell survival in the absence of PDGF-BB (FN-null cells [4]): survived | FN-null cell survival / proliferation (FN-null cells [4]): robust proliferation | FN-null cell survival / proliferation, summary statement (FN-null cells [4]): survived in the absence of PDGF-BB and proliferated in its presence | FN-null cell survival with PDGF at 3 days (FN-null cells [4]): best survival response | TGF-β1 binding, in words (TGF-β1): bound

FNIII1: recombinant FN domain, first type III repeat
Binding of the GFs tested, in words [1]: all four GFs bound | pKd (PDGF-BB [2]): 7.49 | pKd (PDGF-BB [3]): 6.43 | FN-null cell survival with PDGF at 3 days (FN-null cells [4]): increased survival | pKd (TGF-β1; method not restated (equilibrium and kinetic binding performed)): 8.21

FNIII2: recombinant FN domain, second type III repeat
Binding of the GFs tested, in words [1]: all four GFs bound

FNIII8-11: classic cell-binding domain of FN containing RGD
Binding of the GFs tested, in words [1]: None of the GFs detectably bound; also recorded: In no case did any GF bind | PDGF-BB binding, in words (PDGF-BB [2]): did not | FN-null cell survival / proliferation, summary statement (FN-null cells [4]): failed to survive even in the presence of PDGF-BB; also recorded: did not support cell survival | FN-null cell survival with PDGF at 3 days (FN-null cells [4]): failed to survive

FNIII8-V15: FN functional domain containing FNIII8-11 plus a GF-binding domain
FN-null cell survival / proliferation (FN-null cells [4]): robust proliferation | FN-null cell survival / proliferation, summary statement (FN-null cells [4]): survived in the absence of PDGF-BB and proliferated in its presence

PSHISKYILRWRPK [P12]
FN null cell survival and proliferation (FN-null cells [5]; [9]): smallest peptide capable of supporting FN-null cell survival or proliferation

PSLAKKQRFRHRNR
FN null cell survival and proliferation (FN-null cells [5]; in the presence of PDGF-BB): supported FN null cell survival and proliferation

QLISIQQYGHQEVTRFDFTTTSTST [peptide 2]
Inhibition of PDGF-BB binding to FNIII1, FNIII12-14 and IIICS [6]: neither peptide 2, nor the scramble variant of peptide 1 (FN634-658s), demonstrated inhibition

QPSHISKY
TGF-β1 binding, in words (TGF-β1): minimal binding activity

QPSHISKYILRWRPKNSVGRWKEAT [peptide 1]
Inhibition of PDGF-BB binding to FNIII1, FNIII12-14 and IIICS [6]: marked inhibition | Inhibition of TGF-β1 binding to any recombinant FN domain [7]: completely inhibited | FN null cell survival and proliferation (FN-null cells [5]; [9]): supported FN null cell survival and proliferation | Inhibition of bFGF binding to any recombinant FN domain [8]: completely inhibited

QPSVGQQMIFEEHGFRRTTPPTTAT [peptide 4]
pKd (TGF-β1; equilibrium binding): 7.00

anastellin: 76-aa peptide within FNIII1; anti-angiogenic, promotes FN polymerization [reference compound]
Binding of the GFs tested, in words [1]: all but VEGF bound | PDGF-BB binding, in words (PDGF-BB [2]): demonstrated PDGF-BB binding

intact FN: intact human plasma fibronectin (SEQ ID NO:1)
EGF binding, in words (EGF): did not | FGF-1 binding, in words (FGF-1): did not | pKd (PDGF-BB [2]): 7.31 | TGF-α binding, in words (TGF-α): did not | pKd (bFGF (FGF-2); equilibrium binding, intact FN, read-out: KD, FGF-2 (bFGF) binding): 7.36 | FN-null cell survival / proliferation (FN-null cells [4]): robust proliferation | FN-null cell survival / proliferation, summary statement (FN-null cells [4]): survived in the absence of PDGF-BB and proliferated in its presence | pKd (TGF-β1; equilibrium binding): 7.28
